{"source": "paper PMC10888562", "about": "(International Journal of Molecular Sciences, 2024)", "key": {"[1]": {"system": "HT29 colon cells", "assay": "TMRE mitochondrial membrane potential (MtMP) assay", "format": "cell-based, human", "conditions": "GI50 drug concentration (FCCP 20 μM)", "experimental": "This was achieved by determining if the overproduction of ROS induced by these complexes impacts mitochondrial activity by altering MtMP. Briefly, there is evidence showing a strong correlation between increased levels of ROS and mitochondrial impairment. […] The MtMP changes recorded are measured as RFU. […] To investigate the MtMP changes in HT29 treated cells, a TMRE-MtMP Assay Kit (Abcam, Cambridge, MA, USA) was used, as previously described. In 96-well plates, 25,000 cells/mL of HT29 colon cells in DMEM were seeded. Cells were treated with a GI50 drug concentration for each complex. At 24, 48 or 72 h, cells were washed with PBS and stained with tetramethylrhodamine, ethyl ester (TMRE) (1 μM) and incubated for 30 min. TMRE was then removed, and cells were then re-washed with PBS (0.2% BSA), after which phenol red free media was added. The plates were directly scanned to measure fluorescence (expressed as RFU), using the Glo-Max®-Multimode microplate reader (Promega Corporation, Alexandra, VIC, Australia) at an excitation/emission of 549/575 nm. For the positive control, 20 μM carbonyl cyanide 4-(trifluoromethoxy) phenylhydrazone (FCCP)) was added to the cells and incubated for 10 min. The cells were washed with PBS (0.2% BSA) and stained with TMRE (1 μM) for 30 min; this was removed, and phenol red free media was added, and the final solution was scanned as mentioned above."}, "[2]": {"system": "histone deacetylase (HDAC)", "assay": "Fluorometric HDAC activity assay on extracts of treated HT29 cells", "format": "cell-based, human", "conditions": "HT29 colon cells treated 72 h at GI50 concentration; lower RFU = decline in HDAC activity; HT29 extract control 5154 ± 40", "experimental": "All values are expressed as RFU.\nTo study the HDAC activity in HT29 treated cells, a Fluorometric HDAC Activity Assay Kit ab156064 (Abcam, Cambridge, MA, USA) was used and all sample preparations were made based on the manufacturer’s protocol. A total of 10^6 cells/mL of HT29 cells were seeded in DMEM with serum deprivation for 18 h to synchronise the cells. […] Cells were then washed with cold PBS and resuspended in lysis buffer (10 mM Tris HCl (pH 7.5), 10 mM NaCl, 15 mM MgCl2, 250 mM sucrose, 0.5% NP-40 and 0.1 mM EGTA) and lysed on ice for 20 min. Cells were centrifuged through 4 mL of sucrose cushion (30% sucrose, 10mM Tris HCl (pH 7.5), 10 mM NaCl and 3mM MgCl2) at 1300× g for 10 min at 4 °C. Supernatant was discarded and the pellet was washed and resuspended in extraction buffer (50 mM HEPES-KOH (pH 7.5), 420 mM NaCl, 0.5 mM EDTA 2Na, 0.1 mM EGTA and 10% glycerol) and then sonicated for 30 s. Nuclei were lysed for 30 min on ice and centrifuged at 20,000× g for 30 min. The supernatant was collected, and the samples were prepared for the fluorometric assay according to the manufacturer’s protocol (Histone Deacetylase (HDAC) Activity Assay Fluorometric Kit ab156064, Abcam). The changes in the relative fluorescence intensity (expressed as RFU) were recorded each minute over 60 min using the Glo-Max®-Multimode microplate reader (Promega Corporation, Alexandra, VIC, Australia) at an excitation/emission of 355/460 nm."}, "[3]": {"system": "HT29 colon", "design": "method as in PMID 36142383, PMID 37173934, PMID 36296713", "conditions": "cited from earlier work"}, "[4]": {"system": "U87 glioblastoma", "design": "method as in PMID 36142383, PMID 37173934, PMID 36296713", "conditions": "cited from earlier work"}, "[5]": {"system": "H460 lung", "design": "method as in PMID 36142383, PMID 37173934, PMID 36296713", "conditions": "cited from earlier work"}, "[6]": {"system": "A431 skin", "design": "method as in PMID 36142383, PMID 37173934, PMID 36296713", "conditions": "cited from earlier work"}, "[7]": {"system": "Du145 prostate", "design": "method as in PMID 36142383, PMID 37173934, PMID 36296713", "conditions": "cited from earlier work"}, "[8]": {"system": "BE2-C neuroblastoma", "design": "method as in PMID 36142383, PMID 37173934, PMID 36296713", "conditions": "cited from earlier work"}, "[9]": {"system": "SJ-G2 glioblastoma", "design": "method as in PMID 36142383, PMID 37173934, PMID 36296713", "conditions": "cited from earlier work"}, "[10]": {"system": "MIA pancreas", "design": "method as in PMID 36142383, PMID 37173934, PMID 36296713", "conditions": "cited from earlier work"}, "[11]": {"system": "A2780 ovarian", "design": "method as in PMID 36142383, PMID 37173934, PMID 36296713", "conditions": "cited from earlier work"}, "[12]": {"system": "cisplatin-resistant ADDP ovarian variant", "design": "method as in PMID 36142383, PMID 37173934, PMID 36296713", "conditions": "cited from earlier work"}, "[13]": {"system": "MCF-7 breast", "design": "method as in PMID 36142383, PMID 37173934, PMID 36296713", "conditions": "cited from earlier work"}, "[14]": {"system": "non-tumour-derived MCF10A breast line", "design": "method as in PMID 36142383, PMID 37173934, PMID 36296713", "conditions": "cited from earlier work"}, "[15]": {"system": "multiple human cell lines", "design": "method as in PMID 36142383, PMID 37173934, PMID 36296713", "conditions": "average over all cell lines; cited from earlier work"}, "[16]": {"system": "HT29 colon cells", "design": "method as in PMID 36142383, PMID 37173934, PMID 36296713", "conditions": "cited from earlier work"}, "[17]": {"system": "peritoneal carcinoma", "design": "method as in PMID 20535526", "conditions": "BD-IX rats with peritoneal carcinoma; cited from earlier work"}, "[18]": {"system": "prostate tumour", "design": "method as in PMID 18997969", "conditions": "mice with prostate tumour; cited from earlier work"}}, "note": "Where “and” joins values, the source holds several entries; their conditions need not be identical. Identical values can stand only once. Like-named read-outs stand apart in the source and are kept apart here.", "data": [{"smiles": "Cc1c(C)c2cccnc2c2ncccc12.N[C@H]1CCCC[C@@H]1N.[Pt]", "note": "[56MESS, [Pt^II(5,6-Me2phen)(SS-DACH)]^2+]", "values": [{"measurement": "MtMP Changes", "setting": "[1]; 24 h, control 542 ± 4", "result": "277 ± 5", "unit": "RFU"}, {"measurement": "MtMP Changes", "setting": "[1]; 48 h, control 507 ± 11", "result": "211 ± 7", "unit": "RFU"}, {"measurement": "MtMP Changes", "setting": "[1]; 72 h, control 449 ± 10", "result": "151 ± 7", "unit": "RFU"}, {"measurement": "HDAC Inhibition at 72 h", "setting": "[2]", "result": "1847 RFU and 1847 ± 42 RFU"}, {"measurement": "GI50", "setting": "[3]", "result": "10 ± 1.6", "unit": "nM"}, {"measurement": "GI50", "setting": "[4]", "result": "35 ± 6.4", "unit": "nM"}, {"measurement": "GI50", "setting": "[5]", "result": "21 ± 2", "unit": "nM"}, {"measurement": "GI50", "setting": "[6]", "result": "29 ± 1", "unit": "nM"}, {"measurement": "GI50", "setting": "[7]", "result": "4.6 ± 0.4", "unit": "nM"}, {"measurement": "GI50", "setting": "[8]", "result": "59 ± 4", "unit": "nM"}, {"measurement": "GI50", "setting": "[9]", "result": "66 ± 22", "unit": "nM"}, {"measurement": "GI50", "setting": "[10]", "result": "13 ± 2", "unit": "nM"}, {"measurement": "GI50", "setting": "[11]", "result": "76 ± 57", "unit": "nM"}, {"measurement": "GI50", "setting": "[12]", "result": "13 ± 2", "unit": "nM"}, {"measurement": "GI50", "setting": "[13]", "result": "93 ± 44", "unit": "nM"}, {"measurement": "GI50", "setting": "[14]", "result": "16 ± 1", "unit": "nM"}, {"measurement": "GI50", "setting": "[15]", "result": "36 ± 10", "unit": "nM"}, {"measurement": "ROS Production", "setting": "[16]; 24 h", "result": "240 ± 5", "unit": "RFU"}, {"measurement": "ROS Production", "setting": "[16]; 48 h", "result": "218 ± 3", "unit": "RFU"}, {"measurement": "ROS Production", "setting": "[16]; 72 h", "result": "255 ± 4", "unit": "RFU"}, {"measurement": "nephrotoxicity", "setting": "[17]", "result": "caused nephrotoxicity"}, {"measurement": "tumour suppression", "setting": "[17]", "result": "ineffective in suppressing tumour"}]}, {"smiles": "N[C@H]1CCCC[C@@H]1N.[Pt+2].c1cnc2c(c1)ccc1cccnc12", "note": "[PHENSS, [Pt^II(phen)(SS-DACH)]^2+]", "values": [{"measurement": "MtMP Changes", "setting": "[1]; 24 h, control 542 ± 4", "result": "321 ± 7", "unit": "RFU"}, {"measurement": "MtMP Changes", "setting": "[1]; 48 h, control 507 ± 11", "result": "305 ± 5", "unit": "RFU"}, {"measurement": "MtMP Changes", "setting": "[1]; 72 h, control 449 ± 10", "result": "257 ± 6", "unit": "RFU"}, {"measurement": "HDAC Inhibition at 72 h", "setting": "[2]", "result": "3733 ± 37", "unit": "RFU"}, {"measurement": "GI50", "setting": "[3]", "result": "160 ± 45", "unit": "nM"}, {"measurement": "GI50", "setting": "[4]", "result": "980 ± 270", "unit": "nM"}, {"measurement": "GI50", "setting": "[5]", "result": "360 ± 35", "unit": "nM"}, {"measurement": "GI50", "setting": "[6]", "result": "480 ± 170", "unit": "nM"}, {"measurement": "GI50", "setting": "[7]", "result": "100 ± 38", "unit": "nM"}, {"measurement": "GI50", "setting": "[8]", "result": "380 ± 46", "unit": "nM"}, {"measurement": "GI50", "setting": "[9]", "result": "330 ± 66", "unit": "nM"}, {"measurement": "GI50", "setting": "[10]", "result": "200 ± 57", "unit": "nM"}, {"measurement": "GI50", "setting": "[11]", "result": "230 ± 30", "unit": "nM"}, {"measurement": "GI50", "setting": "[12]", "result": "190 ± 47", "unit": "nM"}, {"measurement": "GI50", "setting": "[13]", "result": "1500 ± 500", "unit": "nM"}, {"measurement": "GI50", "setting": "[14]", "result": "300 ± 58", "unit": "nM"}, {"measurement": "GI50", "setting": "[15]", "result": "434 ± 110", "unit": "nM"}, {"measurement": "ROS Production", "setting": "[16]; 24 h", "result": "174 ± 2", "unit": "RFU"}, {"measurement": "ROS Production", "setting": "[16]; 48 h", "result": "172 ± 9", "unit": "RFU"}, {"measurement": "ROS Production", "setting": "[16]; 72 h", "result": "176 ± 7", "unit": "RFU"}, {"measurement": "rate of tumour regression", "setting": "[18]", "result": "comparable to cisplatin"}, {"measurement": "toxicity", "setting": "[18]", "result": "no toxicity was detected"}]}]}
